Reference: patent US12630534B2 (TAKEDA PHARMACEUTICAL COMPANY LIMITED, priority 2020, dated 2026)

Molecular target: T1, human GPR139 (Homo sapiens, UniProt Q6DWJ6)
T1 construct: expressed in transfected cells; host or cells: CHO-TREx (Life Technologies) cells, expression induced with doxycycline
T1 sequence (Q6DWJ6 1-353): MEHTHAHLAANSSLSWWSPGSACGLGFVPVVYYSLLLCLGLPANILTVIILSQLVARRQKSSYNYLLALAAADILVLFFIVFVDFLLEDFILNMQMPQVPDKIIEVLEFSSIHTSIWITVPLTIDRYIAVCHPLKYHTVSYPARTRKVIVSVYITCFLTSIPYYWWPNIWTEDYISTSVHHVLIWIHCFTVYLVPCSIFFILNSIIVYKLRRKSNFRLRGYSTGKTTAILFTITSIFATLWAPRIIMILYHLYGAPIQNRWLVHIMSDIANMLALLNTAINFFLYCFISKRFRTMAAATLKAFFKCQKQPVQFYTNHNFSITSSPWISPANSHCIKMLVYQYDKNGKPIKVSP
Assay: Inhibition rate of the amount of IP1 in GPR139-expressed CHO cells (inverse agonist assay, Test Example 2)
Format: cell-based
Conditions: CHO, relative value, inhibition rate of Example Compound 2 in Test Example 1 defined as 100%
Method in brief: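 CHO-TREx cells with doxycycline-inducible human GPR139 (2 μg/mL, 17 h) were incubated with compound at 2000 cells/well for 40 min at 37° C. IP1 quantified by HTRF (665/615 nm ratio ×10000); inhibition rate expressed relative to a reference compound defined as […].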

In the case of CCn1cc(Cn2cc(C)n(-c3cc(OCC(F)(F)F)cc(N4CCO[C@H](C)C4)c3)c2=O)cn1 [Example 72, 1-[(1-ethyl-1H-pyrazol-4-yl)methyl]-4-methyl-3-{3-[(2R)-2-methylmorpholin-4-yl]-5-(2,2,2-trifluoroethoxy)phenyl}-1,3-dihydro-2H-imidazol-2-one], the inhibition at 30 µM was 99%.

CCn1cc(Cn2c(C)c(C)n(-c3cc(OCC(F)(F)F)cc(N(C)C4CCOCC4)c3)c2=O)cn1 [Example 73, 1-[(1-ethyl-1H-pyrazol-4-yl)methyl]-4,5-dimethyl-3-{3-[methyl(oxan-4-yl)amino]-5-(2,2,2-trifluoroethoxy)phenyl}-1,3-dihydro-2H-imidazol-2-one] gave an inhibition at 30 µM of 99%.

Work on C=Cc1cc(N2CCO[C@H](C)C2)cc(-n2ccn(Cc3cnn(CC)c3)c2=O)c1F [Example 74, 1-{3-ethenyl-2-fluoro-5-[(2R)-2-methylmorpholin-4-yl]phenyl}-3-[(1-ethyl-1H-pyrazol-4-yl)methyl]-1,3-dihydro-2H-imidazol-2-one] yielded an inhibition at 30 µM of 98%.

CC(C)n1cc(Cn2ccn(-c3nc(N4CCO[C@H](C)C4)cc(C(F)(F)F)c3F)c2=O)cn1 [Example 75, 1-{3-fluoro-6-[(2R)-2-methylmorpholin-4-yl]-4-(trifluoromethyl)pyridin-2-yl}-3-{[1-(propan-2-yl)-1H-pyrazol-4-yl]methyl}-1,3-dihydro-2H-imidazol-2-one] was tested, and the inhibition at 30 µM was 99%.

In the case of Cc1c(C)n(-c2cc(C(F)F)cc(N(C)C3CCOCC3)c2)c(=O)n1Cc1cnn(C(C)C)c1 [Example 76, 1-{3-(difluoromethyl)-5-[methyl(oxan-4-yl)amino]phenyl}-4,5-dimethyl-3-{[1-(propan-2-yl)-1H-pyrazol-4-yl]methyl}-1,3-dihydro-2H-imidazol-2-one], the inhibition at 30 µM was 97%.

CCn1cc(Cn2cc(C)n(-c3cc(C(F)(F)F)nn3CCC3CCC3)c2=O)cn1 [Example 77, 3-[1-(2-cyclobutylethyl)-3-(trifluoromethyl)-1H-pyrazol-5-yl]-1-[(1-ethyl-1H-pyrazol-4-yl)methyl]-4-methyl-1,3-dihydro-2H-imidazol-2-one] gave an inhibition at 30 µM of 100%.

For CCn1cc(Cn2ccn(-c3cc(N4CCO[C@H](C)C4)cc(C4CC4(F)F)c3F)c2=O)cn1 (stereo partly drawn) [Example 78, 1-{3-(2,2-difluorocyclopropyl)-2-fluoro-5-[(2R)-2-methylmorpholin-4-yl]phenyl}-3-[(1-ethyl-1H-pyrazol-4-yl)methyl]-1,3-dihydro-2H-imidazol-2-one], the inhibition at 30 µM was 99%.

Cc1cn(-c2cc(N3CCOC(C)(C)C3)cc(C(F)F)c2F)c(=O)n1Cc1cnn(C(C)C)c1 [Example 79, 1-[3-(difluoromethyl)-5-(2,2-dimethylmorpholin-4-yl)-2-fluorophenyl]-4-methyl-3-{[1-(propan-2-yl)-1H-pyrazol-4-yl]methyl}-1,3-dihydro-2H-imidazol-2-one] was tested, and the inhibition at 30 µM was 98%.

CCc1cc(N2CCO[C@H](C)C2)cc(-n2ccn(Cc3cnn(CC)c3)c2=O)c1F [Example 80, 1-{3-ethyl-2-fluoro-5-[(2R)-2-methylmorpholin-4-yl]phenyl}-3-[(1-ethyl-1H-pyrazol-4-yl)methyl]-1,3-dihydro-2H-imidazol-2-one] showed an inhibition at 30 µM of 99%.

CCc1cc(N2CCO[C@H](C)C2)cc(-n2cc(C)n(Cc3cnn(CC)c3)c2=O)c1F [Example 81, 1-{3-ethyl-2-fluoro-5-[(2R)-2-methylmorpholin-4-yl]phenyl}-3-[(1-ethyl-1H-pyrazol-4-yl)methyl]-4-methyl-1,3-dihydro-2H-imidazol-2-one] showed an inhibition at 30 µM of 98%.

In the case of CCn1cc(Cn2cc(C)n(-c3cc(N4CCO[C@H](C)C4)cc(C(F)(F)F)c3Cl)c2=O)cn1 [Example 82, 3-{2-chloro-5-[(2R)-2-methylmorpholin-4-yl]-3-(trifluoromethyl)phenyl}-1-[(1-ethyl-1H-pyrazol-4-yl)methyl]-4-methyl-1,3-dihydro-2H-imidazol-2-one], the inhibition at 30 µM was 100%.

Compound CCn1cc(Cn2c(C)cn(-c3nc(N(C)C4CCOCC4)cc(C(F)(F)F)c3Cl)c2=O)cn1 [Example 83, 1-{3-chloro-6-[methyl(oxan-4-yl)amino]-4-(trifluoromethyl)pyridin-2-yl}-3-[(1-ethyl-1H-pyrazol-4-yl)methyl]-4-methyl-1,3-dihydro-2H-imidazol-2-one] has an inhibition at 30 µM of 99%.

In the case of CCn1cc(Cn2c(C)cn(-c3nc(N4CCO[C@H](C)C4)cc(C(F)(F)F)c3Cl)c2=O)cn1 [Example 84, 1-{3-chloro-6-[(2R)-2-methylmorpholin-4-yl]-4-(trifluoromethyl)pyridin-2-yl}-3-[(1-ethyl-1H-pyrazol-4-yl)methyl]-4-methyl-1,3-dihydro-2H-imidazol-2-one], the inhibition at 30 µM was 99%.

Cc1cn(-c2nc(N3CCO[C@H](C)C3)cc(C(F)(F)F)c2Cl)c(=O)n1Cc1cnn(C(C)C)c1 [Example 85, 1-{3-chloro-6-[(2R)-2-methylmorpholin-4-yl]-4-(trifluoromethyl)pyridin-2-yl}-4-methyl-3-{[1-(propan-2-yl)-1H-pyrazol-4-yl]methyl}-1,3-dihydro-2H-imidazol-2-one] gave an inhibition at 30 µM of 97%.

CCn1cc(Cn2cc(C)n(-c3cc(C(F)(F)F)cc(N(C)C4CCOCC4)n3)c2=O)cn1 [Example 86, 1-[(1-ethyl-1H-pyrazol-4-yl)methyl]-4-methyl-3-{6-[methyl(oxan-4-yl)amino]-4-(trifluoromethyl)pyridin-2-yl}-1,3-dihydro-2H-imidazol-2-one] showed an inhibition at 30 µM of 101%.

Cc1cc(N2CCO[C@H](C)C2)cc(-n2cc(C)n(Cc3cnn(C(C)C)c3)c2=O)c1F [Example 87, 1-{2-fluoro-3-methyl-5-[(2R)-2-methylmorpholin-4-yl]phenyl}-4-methyl-3-{[1-(propan-2-yl)-1H-pyrazol-4-yl]methyl}-1,3-dihydro-2H-imidazol-2-one] showed an inhibition at 30 µM of 98%.

CCn1cc(Cn2cc(C)n(-c3cc(OCC(F)(F)F)cc(N(C)C4CCOCC4)c3)c2=O)cn1 [Example 88, 1-[(1-ethyl-1H-pyrazol-4-yl)methyl]-4-methyl-3-{3-[methyl(oxan-4-yl)amino]-5-(2,2,2-trifluoroethoxy)phenyl}-1,3-dihydro-2H-imidazol-2-one] was tested, and the inhibition at 30 µM was 99%.

For CCn1cc(Cn2cc(C)n(-c3cc(Br)cc(N4CCO[C@H](C)C4)c3)c2=O)cn1 [Example 89, 3-{3-bromo-5-[(2R)-2-methylmorpholin-4-yl]phenyl}-1-[(1-ethyl-1H-pyrazol-4-yl)methyl]-4-methyl-1,3-dihydro-2H-imidazol-2-one], the inhibition at 30 µM was 101%.

Compound Cc1nn(-c2cc(N3CCO[C@@H](C)C3)cc(C(F)(F)F)c2F)c(=O)n1Cc1cnn(C(C)C)c1 [Example 90, 2-{2-fluoro-5-[(2S)-2-methylmorpholin-4-yl]-3-(trifluoromethyl)phenyl}-5-methyl-4-{[1-(propan-2-yl)-1H-pyrazol-4-yl]methyl}-2,4-dihydro-3H-1,2,4-triazol-3-one] has an inhibition at 30 µM of 99%.

Cc1nn(-c2cc(N3CCO[C@H](C)C3)cc(C(F)(F)F)c2F)c(=O)n1Cc1cnn(C(C)C)c1 [Example 91, 2-{2-fluoro-5-[(2R)-2-methylmorpholine-4-yl]-3-(trifluoromethyl)phenyl}-5-methyl-4-{[1-(propane-2-yl)-1H-pyrazole-4-yl]methyl}-2,4-dihydro-3H-1,2,4-triazole-3-one] showed an inhibition at 30 µM of 100%.

Work on Cc1nn(-c2cc(N(C)C3CCOCC3)cc(C(F)(F)F)c2F)c(=O)n1Cc1cnn(C(C)C)c1 [Example 92, 2-{2-fluoro-5-[methyl(oxan-4-yl)amino]-3-(trifluoromethyl)phenyl}-5-methyl-4-{[1-(propan-2-yl)-1H-pyrazol-4-yl]methyl}-2,4-dihydro-3H-1,2,4-triazol-3-one] yielded an inhibition at 30 µM of 99%.

Cc1nn(-c2cc(N3CCOC(C)(C)C3)cc(C(F)(F)F)c2F)c(=O)n1Cc1cnn(C(C)C)c1 [Example 93] showed an inhibition at 30 µM of 99%.

Cc1nn(-c2cc(N3CCC(F)(F)C3)cc(C(F)(F)F)c2F)c(=O)n1Cc1cnn(C(C)C)c1 [Example 94, 2-[5-(3,3-difluoropyrrolidin-1-yl)-2-fluoro-3-(trifluoromethyl)phenyl]-5-methyl-4-{[1-(propan-2-yl)-1H-pyrazol-4-yl]methyl}-2,4-dihydro-3H-1,2,4-triazol-3-one] showed an inhibition at 30 µM of 99%.

In the case of CCn1cc(Cn2c(C)nn(-c3cc(N(C)C4CCOCC4)cc(C(F)(F)F)c3F)c2=O)cn1 [Example 95, 4-[(1-ethyl-1H-pyrazol-4-yl)methyl]-2-{2-fluoro-5-[methyl(oxan-4-yl)amino]-3-(trifluoromethyl)phenyl}-5-methyl-2,4-dihydro-3H-1,2,4-triazol-3-one], the inhibition at 30 µM was 100%.

With CCn1cc(Cn2c(C)nn(-c3cc(N4CCOC(C)(C)C4)cc(C(F)(F)F)c3F)c2=O)cn1 [Example 96, 2-[5-(2,2-dimethylmorpholin-4-yl)-2-fluoro-3-(trifluoromethyl)phenyl]-4-[(1-ethyl-1H-pyrazol-4-yl)methyl]-5-methyl-2,4-dihydro-3H-1,2,4-triazol-3-one] the inhibition at 30 µM was 101%.

Work on CCn1cc(Cn2c(C)nn(-c3cc(N4CCC(F)(F)CC4)cc(C(F)(F)F)c3F)c2=O)cn1 [Example 97, 2-[5-(4,4-difluoropiperidin-1-yl)-2-fluoro-3-(trifluoromethyl)phenyl]-4-[(1-ethyl-1H-pyrazol-4-yl)methyl]-5-methyl-2,4-dihydro-3H-1,2,4-triazol-3-one] yielded an inhibition at 30 µM of 102%.
